Measured values published in patent USRE49022E1, “Insecticidal compounds” (SYNGENTA PARTICIPATIONS AG, priority 2013, dated 2022).

What was measured:
Assay type in all cases: in vivo
[1] = tested on: Myzus persicae (Green Peach Aphid); experiment: Myzus persicae, sunflower leaf disc spray test; details: foliar, 144 h, sprayed sunflower leaf discs, aphid population of mixed ages, mortality after 6 DAT
Protocol: Sunflower leaf discs were placed on agar in a 24-well microtiter plate and sprayed with test solutions at an application rate of 200 ppm. After drying, the leaf discs were infested with an aphid population of mixed ages. After an incubation period of 6 DAT, samples were checked for mortality.

[2] = tested on: Thrips tabaci (Onion Thrips); experiment: Thrips tabaci, sunflower leaf disc spray test; details: foliar, 168 h, sprayed sunflower leaf discs, mortality after 7 days
[3] = tested on: Spodoptera littoralis (Egyptian Cotton Leafworm); experiment: Spodoptera littoralis, cotton leaf disc spray test; details: foliar, 72 h, sprayed cotton leaf discs, L1 larvae, 3 days after treatment
Text: Cotton leaf discs were placed on agar in a 24-well microtiter plate and sprayed with test solutions at an application rate of 200 ppm. After drying, the leaf discs were infested with 5 L1 larvae. The samples were checked for mortality 3 days after treatment (DAT).

[4] = tested on: Spodoptera littoralis (Egyptian Cotton Leaf Worm); experiment: Spodoptera littoralis, agar / lettuce root uptake test; details: 144 h, mixed with agar, uptake by lettuce roots, mortality 6 days after infestation
Text: Test compounds were applied by pipette into 24 well plates and mixed with agar. Application rate: 12.5 ppm. Lettuce seeds were placed on the agar and the multi well plate is closed by another plate which contains also agar. After 7 days the roots have absorbed the compound and the lettuce has grown into the lid plate. The lettuce leafs were now cut off into the lid plate. Spodoptera eggs were pipetted through a plastic stencil on a humid gel blotting paper and the plate closed with it. The samples are checked for mortality 6 days after infestation.

[5] = tested on: Myzus persicae (Green Peach Aphid); experiment: Myzus persicae, sucrose solution / Parafilm test; details: 120 h, mixed with sucrose solution under Parafilm, mortality 5 days after infestation
Text: Test compounds were applied by pipette into 24 well plates and mixed with Sucrose solution. Application rate: 12.5 ppm. The plates were closed with a stretched Parafilm. A plastic stencil with 24 holes is placed onto the plate and infested pea seedlings were placed directly on the Parafilm. The infested plate is closed with a gel blotting paper and another plastic stencil and then turned upside down. 5 days after infestation the samples were checked on mortality.

[6] = tested on: Diabrotica balteata (Corn Root Worm); experiment: Diabrotica balteata, artificial diet MTP test; details: 120 h, 200 ppm (concentration in well 18 ppm), L2 larvae, larval mortality after 5 days
Protocol: A 24-well microtiter plate (MTP) with artificial diet was treated with test solutions at an application rate of 200 ppm (concentration in well 18 ppm) by pipetting. After drying, the MTP's were infested with L2 larvae (6-10 per well). After an incubation period of 5 days, samples were checked for larval mortality The following compound gave at least 80% control of Diabrotica balteata: 1, 2, 3, 4, 5, 6, 7, 8, 9, 10, 11, 12, 13, 14, 15, 16, 17, 18, 19, 20, 21, 22, 23, 24, 25, 26, 27, 28, 29, 30, 31, 32, 33, 34, 35, 36, 37, 38, 39, 40, 41, 42, 43, 44, 45, 46, 47, 48, 49, 50, 51.

[7] = tested on: Tetranychus urticae (Two-Spotted Spider Mite); experiment: Tetranychus urticae, bean leaf disc spray test; details: foliar, 192 h, sprayed bean leaf discs, mite populations of mixed ages, 8 days
Text: Bean leaf discs on agar in 24-well microtiter plates were sprayed with test solutions at an application rate of 200 ppm. After drying, the leaf discs are infested with mite populations of mixed ages. 8 days later, discs were checked for mortality.

[8] = tested on: Plutella xylostella (Diamond Back Moth); experiment: Plutella xylostella, artificial diet MTP test; details: 144 h, 200 ppm (concentration in well 18 ppm), L2 larvae, 6 days
Protocol: 24-well microtiter plate (MTP) with artificial diet was treated with test solutions at an application rate of 200 ppm (concentration in well 18 ppm) by pipetting. After drying, the MTP's were infested with L2 larvae (7-12 per well). After an incubation period of 6 days, samples were checked for larval mortality and growth regulation. The following compound gave at least 80% mortality of Plutella xylostella: 1, 2, 3, 4, 5, 6, 7, 8, 9, 10, 11, 12, 13, 14, 15, 16, 17, 18, 19, 20, 21, 22, 23, 24, 25, 26, 27, 28, 29, 30, 31, 32, 33, 34, 35, 36, 37, 38, 39, 40, 41, 42, 43, 44, 45, 46, 47, 48, 49, 50.

COc1c(NC(=O)c2ccc(C#N)cc2)cccc1C(=O)Nc1c(Br)cc(C(F)(C(F)(F)F)C(F)(F)Cl)cc1OC(F)F (centres unmarked) [Compound 16]
≥ 80%: pest or weed control at 200 ppm [1] | pest or weed control at 200 ppm [2] | mortality at 200 ppm [3] | pest or weed control at 12.5 ppm [4] | pest or weed control at 12.5 ppm [5] | pest or weed control at 200 ppm [6] | mortality at 200 ppm [7] | mortality at 200 ppm [8]

CCN(C(=O)c1ccc[n+]([O-])c1)c1cccc(C(=O)Nc2c(Br)cc(C(F)(C(F)(F)F)C(F)(F)Cl)cc2OC(F)F)c1F (centres unmarked) [Compound 47]
≥ 80%: pest or weed control at 200 ppm [1] | pest or weed control at 200 ppm [2] | mortality at 200 ppm [3] | pest or weed control at 12.5 ppm [4] | pest or weed control at 12.5 ppm [5] | pest or weed control at 200 ppm [6] | mortality at 200 ppm [7] | mortality at 200 ppm [8]

O=C(Nc1cccc(C(=O)Nc2c(Br)cc(C(F)(C(F)(F)F)C(F)(F)Cl)cc2OC(F)F)c1F)c1cccnc1 (centres unmarked) [Compound 12]
≥ 80%: pest or weed control at 200 ppm [1] | pest or weed control at 200 ppm [2] | mortality at 200 ppm [3] | pest or weed control at 12.5 ppm [4] | pest or weed control at 12.5 ppm [5] | pest or weed control at 200 ppm [6] | mortality at 200 ppm [7] | mortality at 200 ppm [8]

O=C(Nc1cccc(C(=O)Nc2c(Br)cc(C(F)(C(F)(F)F)C(F)(F)Cl)cc2OC(F)F)c1F)c1ccncc1 (centres unmarked) [Compound 11]
≥ 80%: pest or weed control at 200 ppm [1] | pest or weed control at 200 ppm [2] | mortality at 200 ppm [3] | pest or weed control at 12.5 ppm [4] | pest or weed control at 12.5 ppm [5] | pest or weed control at 200 ppm [6] | mortality at 200 ppm [7] | mortality at 200 ppm [8]

CCN(C(=O)c1ccc(C#N)cc1)c1cccc(C(=O)Nc2c(Br)cc(C(F)(C(F)(F)F)C(F)(F)Br)cc2OC(F)F)c1F (centres unmarked) [Compound 8]
≥ 80%: pest or weed control at 200 ppm [1] | pest or weed control at 200 ppm [2] | mortality at 200 ppm [3] | pest or weed control at 12.5 ppm [4] | pest or weed control at 12.5 ppm [5] | pest or weed control at 200 ppm [6] | mortality at 200 ppm [7] | mortality at 200 ppm [8]

O=C(Nc1cccc(C(=O)Nc2c(Br)cc(C(F)(C(F)(F)F)C(F)(F)Cl)cc2OC(F)F)c1F)c1cc[n+]([O-])cc1 (centres unmarked) [Compound 23]
≥ 80%: pest or weed control at 200 ppm [1] | pest or weed control at 200 ppm [2] | mortality at 200 ppm [3] | pest or weed control at 12.5 ppm [4] | pest or weed control at 12.5 ppm [5] | pest or weed control at 200 ppm [6] | mortality at 200 ppm [7] | mortality at 200 ppm [8]

N#Cc1ccc(C(=O)Nc2cccc(C(=O)Nc3c(Br)cc(C(F)(C(F)(F)F)C(F)(F)Cl)cc3OC(F)F)c2F)cc1 (centres unmarked) [Compound 13]
≥ 80%: pest or weed control at 200 ppm [1] | pest or weed control at 200 ppm [2] | mortality at 200 ppm [3] | pest or weed control at 12.5 ppm [4] | pest or weed control at 12.5 ppm [5] | pest or weed control at 200 ppm [6] | mortality at 200 ppm [7] | mortality at 200 ppm [8]

COc1c(NC(=O)c2ccc[n+]([O-])c2)cccc1C(=O)Nc1c(Br)cc(C(F)(C(F)(F)F)C(F)(F)Cl)cc1OC(F)F (centres unmarked) [Compound 26]
≥ 80%: pest or weed control at 200 ppm [1] | pest or weed control at 200 ppm [2] | mortality at 200 ppm [3] | pest or weed control at 12.5 ppm [4] | pest or weed control at 12.5 ppm [5] | pest or weed control at 200 ppm [6] | mortality at 200 ppm [7] | mortality at 200 ppm [8]

CCN(C(=O)c1ccc(C#N)cc1)c1cccc(C(=O)Nc2c(Br)cc(C(F)(C(F)(F)F)C(F)(F)Br)cc2OC(F)F)c1OC (centres unmarked) [Compound 10]
≥ 80%: pest or weed control at 200 ppm [1] | pest or weed control at 200 ppm [2] | mortality at 200 ppm [3] | pest or weed control at 12.5 ppm [4] | pest or weed control at 12.5 ppm [5] | pest or weed control at 200 ppm [6] | mortality at 200 ppm [7] | mortality at 200 ppm [8]

O=C(Nc1cccc(C(=O)Nc2c(Br)cc(C(F)(C(F)(F)F)C(F)(F)Br)cc2OC(F)F)c1F)c1cc[n+]([O-])cc1 (centres unmarked) [Compound 6]
≥ 80%: pest or weed control at 200 ppm [1] | pest or weed control at 200 ppm [2] | mortality at 200 ppm [3] | pest or weed control at 12.5 ppm [4] | pest or weed control at 12.5 ppm [5] | pest or weed control at 200 ppm [6] | mortality at 200 ppm [7] | mortality at 200 ppm [8]

CCN(C(=O)c1cccnc1)c1cccc(C(=O)Nc2c(Br)cc(C(F)(C(F)(F)F)C(F)(F)Cl)cc2OC(F)F)c1OC (centres unmarked) [Compound 40]
≥ 80%: pest or weed control at 200 ppm [1] | pest or weed control at 200 ppm [2] | mortality at 200 ppm [3] | pest or weed control at 12.5 ppm [4] | pest or weed control at 12.5 ppm [5] | pest or weed control at 200 ppm [6] | mortality at 200 ppm [7] | mortality at 200 ppm [8]

CCc1cc(C(F)(C(F)(F)F)C(F)(F)Cl)cc(Br)c1NC(=O)c1cccc(N(CC)C(=O)c2cccnc2)c1F (centres unmarked) [Compound 41]
≥ 80%: pest or weed control at 200 ppm [1] | pest or weed control at 200 ppm [2] | mortality at 200 ppm [3] | pest or weed control at 12.5 ppm [4] | pest or weed control at 12.5 ppm [5] | pest or weed control at 200 ppm [6] | mortality at 200 ppm [7] | mortality at 200 ppm [8]

CCc1cc(C(F)(C(F)(F)F)C(F)(F)Cl)cc(Br)c1NC(=O)c1cccc(NC(=O)c2ccncc2)c1OC (centres unmarked) [Compound 20]
≥ 80%: pest or weed control at 200 ppm [1] | pest or weed control at 200 ppm [2] | mortality at 200 ppm [3] | pest or weed control at 12.5 ppm [5] | pest or weed control at 200 ppm [6] | mortality at 200 ppm [7] | mortality at 200 ppm [8]

CCc1cc(C(F)(C(F)(F)F)C(F)(F)Cl)cc(Br)c1NC(=O)c1cccc(NC(=O)c2cccnc2)c1F (centres unmarked) [Compound 18]
≥ 80%: pest or weed control at 200 ppm [1] | pest or weed control at 200 ppm [2] | mortality at 200 ppm [3] | pest or weed control at 12.5 ppm [5] | pest or weed control at 200 ppm [6] | mortality at 200 ppm [7] | mortality at 200 ppm [8]
